Assay results published in patent US6903083B2, “Stabilized hydroxyvitamin D” (Bone Care International, Inc., priority 2000, dated 2005).

Experiments:
Type in all cases: physicochemical
[1] = Storage stability testing of SHVD2, long-term storage at −70° C., HPLC and UV
Experimental: (§1) The stability of samples from four lots of SHVD2 was examined at 6-month intervals during long-term storage at −70° C. All lots were stored in the container-closure system selected as packaging for the drug substance. Stability was assessed by examining samples for changes in (1) weight percent 1α-OH-D2 content, (2) percent related substances content, and (3) impurity profile, using HPLC. In addition, all lots were examined for changes in UV spectrum by UV spectrophotometry.

[2] = Stability testing SHVD2 v. non-SHVD2, oven at about 60° C., HPLC (Example 6); conditions: 0 to 48 hours, solid in test tube, present-tense example
Experimental: Approximately 1 mg of SHVD2 or non-stabilized 1α-hydroxyvitamin D2 (non-SHVD2) is placed in each of 9 (12×75 mm) test tubes. The test tubes are placed in an oven at about 60° C. One test tube of each of the two vitamin D2 preparations is removed at 0, 3, 6, 9, 12, 18, 24, 36 and 48 hours of incubation. The contents in each test tube are dissolved in ethanol to produce a 1 mg/mL solution. Each solution (10 μL) is analyzed by the following HPCL conditions: a YMC Pack C8 column (4.6×250 mm, 5 μm) with a mobile phase of acetonitrile: methanol: water (60:20:20) at a flow rate of 1.0 mL/min.

[3] = Stability testing SHVD2 v. non-SHVD2 (ethanol vapour exposed), 60° C. for 48 hours, HPLC (Example 8); conditions: non-SHVD2 made by exposure to ethanol vapors
Experimental: Approximately 1 mg of stabilized 1α-hydroxyvitamin D2 (doxercalciferol) (SHVD2) was placed in each of two test tubes (12×75 mm). One sample was placed in a dessicator containing an atmosphere of ethanol vapors to increase the residual solvent content of the material to form non-stabilized doxercalciferol (non-SHVD2). The material in the dessicator was heated at 60° C. for 48 hours. The other sample was not subjected to the ethanol atmosphere, thereby retaining its stabilized form, but was heated at 60° C. for 48 hours. The contents in each test tube were dissolved in ethanol to produce a 1 mg/mL solution. Each solution (10 μL) was analyzed by the following HPLC conditions: a YMC Pack C8 column (4.6×250 mm, 5 μm) with a mobile phase of acetonitrile: methanol: water (60:20:20) at a flow rate of 1.0 mL/min.

[4] = Stability testing of 1α,24(S)-dihydroxyvitamin D2 containing >0.5% residual solvents, 60° C. for 48 hours, HPLC (Example 9); conditions: capped vial
Experimental: Approximately 1 mg of 1α,24(S)-dihydroxyvitamin D2 containing >0.5% residual solvents (non-SHVD) was placed in a capped vial and heated at 60° C. for 48 hours. The contents of the vial were dissolved in ethanol to produce a 1 mg/mL solution. The solution (10 μL) was analyzed by the following HPLC conditions: a YMC Pack Pro C18 column (4.6×150 mm, 5 μm) with a mobile phase of acetonitrile: water (50:50) at a flow rate of 1.0 mL/min.

[5] = Storage stability testing of stabilized 24-hydroxyvitamin D2, long-term storage at −70° C., HPLC and UV (Example 11); conditions: present-tense example
Experimental: as §1, with “stabilized 24-Hydroxyvitamin D2 is” for “SHVD2 was”, “are” for “were”, “is” for “was”, “24-OH-D2” for “1α-OH-D2”

[6] = Stability testing SHVD2 v. commercially available 1α-OH-D2, oven at about 60° C., HPLC (Example 7); conditions: solid in test tube, present-tense example
Experimental: Approximately 1 mg of SHVD2 or commercial 1α-hydroxyvitamin D2 is placed in each of 2 (12×75 mm) test tubes. One test tube from each of the two preparations is placed in an oven at about 60° C. For analysis, the contents in each test tube are dissolved in ethanol to produce a 1 mg/mL solution. Each solution (10 μL) is analyzed by the following HPLC conditions: a YMC Pack C8 column (4.6×250 mm, 5 μm) with a mobile phase of acetonitrile: methanol: water (60:20:20) at a flow rate of 1.0 mL/min.

C=C1/C(=C\C=C2/CCC[C@]3(C)[C@@H]([C@H](C)/C=C/[C@H](C)C(C)C)CC[C@@H]23)C[C@@H](O)C[C@@H]1O [SHVD2, 1α-hydroxyvitamin D2]
impurity profile chromatography, new peaks relative to baseline ([1]; 6 or 12 months): no new peaks
weight % 1α-OH-D2 content ([1]; all four lots, all time points (baseline, 6, 12 months), HPLC): > 98.0%
percent related substances ([1]; baseline to 12 months, HPLC): < 2.0%
differences in mean weight % 1α-OH-D2 content between baseline and 6 or 12 months ([1]; four lots): no significant differences

C=C1/C(=C\C=C2/CCC[C@]3(C)[C@@H]([C@H](C)/C=C/[C@H](C)C(C)C)CC[C@@H]23)C[C@@H](O)C[C@@H]1O [non-SHVD2, 1α-hydroxyvitamin D2]
rate of appearance of the peak with relative retention time of approximately 0.9 compared with the 1α-hydroxyvitamin D2 peak [2]: greater with the non-SHVD2 than with SHVD2
rate of appearance of the peak with relative retention time of approximately 0.9 compared with the doxercalciferol peak [3]: greater with the non-SHVD2 material than with SHVD2

C=C1/C(=C\C=C2/CCC[C@]3(C)[C@@H]([C@H](C)/C=C/[C@@](C)(O)C(C)C)CC[C@@H]23)C[C@@H](O)C[C@@H]1O [1α,24(S)-dihydroxyvitamin D2]
appearance of a new compound by HPLC after heating [4]: a compound with a relative retention time of approximately 0.85 compared with standard 1α,24(S)-dihydroxyvitamin D2 was observed

C=C1CC[C@H](O)C/C1=C/C=C1\CCC[C@]2(C)[C@@H]([C@H](C)/C=C/C(C)(O)C(C)C)CC[C@@H]12 (stereo partly drawn) [stabilized 24-Hydroxyvitamin D2, 24-hydroxyvitamin D2]
impurity profile chromatography, new peaks relative to baseline ([5]; 6 or 12 months): no new peaks
weight % 24-OH-D2 content ([5]; all four lots, all time points): > 98.0%
percent related substances ([5]; baseline to 12 months): < 2.0%
differences in mean weight % 24-OH-D2 content between baseline and 6 or 12 months [5]: No significant differences

C=C1/C(=C\C=C2/CCC[C@]3(C)[C@@H]([C@H](C)/C=C/[C@H](C)C(C)C)CC[C@@H]23)C[C@@H](O)C[C@@H]1O [commercial 1α-hydroxyvitamin D2, 1α-hydroxyvitamin D2]
rate of appearance of the peak with relative retention time of approximately 0.9 compared with the 1α-hydroxyvitamin D2 peak [6]: greater with the commercial 1α-hydroxyvitamin D2 than with SHVD2
